US12054483B2, “Small molecule inhibitors of DYRK/CLK and uses thereof” (Arizona Board of Regents on Behalf of the University of …, priority 2018, dated 2024)

target: DYRK1A (Homo sapiens, UniProt Q13627); assay: Affinity testing of compounds with DYRK1A (KD); assay type: binding; details: DYRK1A affinity key classes

Row | Kd | SMILES
1 | 0.5 to 100 nM | Cc1nc2ccc(-c3ccnc(N)c3)nc2n1-c1ccc(=O)n(C)c1 [Compound 48, 5-(5-(2-aminopyridin-4-yl)-2-methyl-3H-imidazo[4,5-b]pyridin-3-yl)-1-methylpyridin-2(1H)-one]
2 | 0.5 to 100 nM | Cc1nc2ccc(-c3ccnc(N)c3)nc2n1-c1ccc(N2CCC3(COC3)C2)c(F)c1 [Compound 169, 4-(3-(3-fluoro-4-(2-oxa-6-azaspiro[3.4]octan-6-yl)phenyl)-2-methyl-3H-imidazo[4,5-b]pyridin-5-yl)pyridin-2-amine]
3 | 101 to 500 nM | Cc1nc2cnc(-c3ccnc(N)c3)cc2n1-c1cccc(CN2CCOCC2)c1 [Compound 180, 4-(2-methyl-1-(3-(morpholinomethyl)phenyl)-1H-imidazo[4,5-c]pyridin-6-yl)pyridin-2-amine]
4 | 0.5 to 100 nM | c1cc(-c2ccc3ncc(-c4ccc5[nH]ccc5c4)n3n2)ccn1 [Compound 77, 3-(1H-indol-5-yl)-6-(pyridin-4-yl)imidazo[1,2-b]pyridazine]
5 | 0.5 to 100 nM | Cc1nc2ccc(-c3ccncc3)nc2n1-c1ccc(Cl)cn1 [Compound 141, 3-(5-chloropyridin-2-yl)-2-methyl-5-(pyridin-4-yl)-3H-imidazo[4,5-b]pyridine]
6 | 101 to 500 nM | Cc1cc(-c2ccc3ncc(-c4ccc(CN5CCOCC5)cc4)n3n2)ccn1 [Compound 90, 4-(4-(6-(2-methylpyridin-4-yl)imidazo[1,2-b]pyridazin-3-yl)benzyl)morpholine]
7 | 0.5 to 100 nM | Cc1nc2ccc(-c3ccnc(N)c3)nc2n1-c1ccc(N2CCOCC2)nc1 [Compound 158, 4-(2-methyl-3-(6-morpholinopyridin-3-yl)-3H-imidazo[4,5-b]pyridin-5-yl)pyridin-2-amine]
8 | 0.5 to 100 nM | Cc1cc(-c2ccc3ncc(-c4ccc(CN5C[C@@H]6C[C@@H]5CO6)cc4)n3n2)ccn1 [Compound 91, (1S,4R)-5-(4-(6-(2-methylpyridin-4-yl)imidazo[1,2-b]pyridazin-3-yl)benzyl)-2-oxa-5-azabicyclo[2.2.1]heptane]
9 | 0.5 to 100 nM | Cc1nc2cc(-n3c(C)nc4ccc(-c5ccncc5)nc43)ccc2[nH]1 [Compound 138, 2-methyl-3-(2-methyl-1H-benzo[d]imidazol-5-yl)-5-(pyridin-4-yl)-3H-imidazo[4,5-b]pyridine]
10 | 0.5 to 100 nM | Cc1nc2ccc(-c3ccnc(N)c3)nc2n1-c1ccc(N2CCOC[C@H]2C)c(F)c1 [Compound 170, (R)-4-(3-(3-fluoro-4-(3-methylmorpholino)phenyl)-2-methyl-3H-imidazo[4,5-b]pyridin-5-yl)pyridin-2-amine]
11 | 0.5 to 100 nM | Fc1cc(-c2ccncc2)cc2c1ncn2-c1ccc2c(c1)OCO2 [Compound 3, 1-(benzo[d][1,3]dioxol-5-yl)-4-fluoro-6-(pyridin-4-yl)-1H-benzo[d]imidazole]
12 | 501 to 10000 nM | FC1(F)CCCN(Cc2ccc(-c3cnc4ccc(-c5ccncc5)nn34)cc2)C1 [Compound 95]
13 | 0.5 to 100 nM | CC(=O)N1C[C@@H]2[C@H](C1)[C@H]2n1c(C)nc2ccc(-c3ccnc(N)c3)nc21 [Compound 47, 1-((1R,5S,6s)-6-(5-(2-aminopyridin-4-yl)-2-methyl-3H-imidazo[4,5-b]pyridin-3-yl)-3-azabicyclo[3.1.0]hexan-3-yl)ethan-1-one]
14 | 501 to 10000 nM | O=c1cc(-c2ccn3ncc(-c4ccc(CN5CCOCC5)cc4)c3n2)cc[nH]1 [Compound 113, 4-(3-(4-(morpholinomethyl)phenyl)pyrazolo[1,5-a]pyrimidin-5-yl)pyridin-2(1H)-one]
15 | 101 to 500 nM | OC1CCCN(Cc2ccc(-c3cnc4ccc(-c5ccncc5)nn34)cc2)C1 (stereo not drawn) [Compound 101, 1-(4-(6-(pyridin-4-yl)imidazo[1,2-b]pyridazin-3-yl)benzyl)piperidin-3-ol]
16 | 501 to 10000 nM | N#Cc1cnccc1-c1ccc2ncc(-c3ccc(CN4CCOCC4)cc3)n2n1 [Compound 106, 4-(3-(4-(morpholinomethyl)phenyl)imidazo[1,2-b]pyridazin-6-yl)nicotinonitrile]
17 | 0.5 to 100 nM | Cc1nc2ccc(-c3ccnc(N)c3)nc2n1-c1cccc(N2CCOCC2)c1 [Compound 157, 4-(2-methyl-3-(3-morpholinophenyl)-3H-imidazo[4,5-b]pyridin-5-yl)pyridin-2-amine]
18 | 101 to 500 nM | Cc1nc2cc(-n3c(C)nc4ccc(-c5ccncc5)nc43)ccc2o1 [Compound 35, 2-methyl-5-(2-methyl-5-(pyridin-4-yl)-3H-imidazo[4,5-b]pyridin-3-yl)benzo[d]oxazole]
19 | 0.5 to 100 nM | COC(=O)c1ccc(-n2cnc3ccc(-c4ccncc4)c(F)c32)cc1 [Compound 5, methyl 4-(7-fluoro-6-(pyridin-4-yl)-1H-benzo[d]imidazol-1-yl)benzoate]
20 | 0.5 to 100 nM | Cc1nc2ccc(-c3ccnc(N)c3)nc2n1-c1ccc(N2CCOCC2)cc1 [Compound 148, 4-(2-methyl-3-(4-morpholinophenyl)-3H-imidazo[4,5-b]pyridin-5-yl)pyridin-2-amine]
21 | 0.5 to 100 nM | Cc1nc2ccc(-c3cnn(C4CC4)c3)nc2n1-c1ccc(N2CCOCC2)c(F)c1 [Compound 147, 4-(4-(5-(1-cyclopropyl-1H-pyrazol-4-yl)-2-methyl-3H-imidazo[4,5-b]pyridin-3-yl)-2-fluorophenyl)morpholine]

Row | Kd | SMILES
22 | 101 to 500 nM | Cc1cc(-c2ccc3ncc(-c4ccc(N5CCCCC5)nc4)n3n2)ccn1 [Compound 81, 6-(2-methylpyridin-4-yl)-3-(6-(piperidin-1-yl)pyridin-3-yl)imidazo[1,2-b]pyridazine]
23 | 0.5 to 100 nM | Cc1nc2ccc(-c3ccncc3)nc2n1-c1ccc(N2CCN(C)CC2)c(F)c1 [Compound 135, 3-(3-fluoro-4-(4-methylpiperazin-1-yl)phenyl)-2-methyl-5-(pyridin-4-yl)-3H-imidazo[4,5-b]pyridine]
24 | 0.5 to 100 nM | Cc1nc2ccc(-c3ccnc(N)c3)nc2n1-c1ccnc(N2CCOCC2)c1 [Compound 164, 4-(2-methyl-3-(2-morpholinopyridin-4-yl)-3H-imidazo[4,5-b]pyridin-5-yl)pyridin-2-amine]
25 | 0.5 to 100 nM | Nc1cc(-c2ccc3ncc(-c4ccc(CN5CCCCC5)cc4)n3n2)ccn1 [Compound 110, 4-(3-(4-(piperidin-1-ylmethyl)phenyl)imidazo[1,2-b]pyridazin-6-yl)pyridin-2-amine]
26 | 101 to 500 nM | COc1cnc(-c2ccnc(N)c2)nc1 [Compound 69, 4-(5-methoxypyrimidin-2-yl)pyridin-2-amine]
27 | 0.5 to 100 nM | Cc1nc2ccc(-c3ccnc(N)c3)nc2n1-c1ccc(F)c(N2CCOCC2)c1 [Compound 173, 4-(3-(4-fluoro-3-morpholinophenyl)-2-methyl-3H-imidazo[4,5-b]pyridin-5-yl)pyridin-2-amine]
28 | 0.5 to 100 nM | c1cc(-c2cn3c(-c4ccc5c(c4)OCO5)cnc3cn2)ccn1 [Compound 67, 3-(benzo[d][1,3]dioxol-5-yl)-6-(pyridin-4-yl)imidazo[1,2-a]pyrazine]
29 | 101 to 500 nM | COC(=O)c1ccc(-n2cnc3cc(F)c(-c4ccncc4)cc32)cc1 [Compound 7, methyl 4-(5-fluoro-6-(pyridin-4-yl)-1H-benzo[d]imidazol-1-yl)benzoate]
30 | 0.5 to 100 nM | Cc1nc2ccc(-c3ccncc3)nc2n1-c1ccc2c(c1)OCC(=O)N2 [Compound 37, 7-(2-methyl-5-(pyridin-4-yl)-3H-imidazo[4,5-b]pyridin-3-yl)-2H-benzo[b][1,4]oxazin-3(4H)-one]
31 | 0.5 to 100 nM | Cc1nc2ccc(-c3cnn(C)c3)nc2n1-c1ccc(N2CCOCC2)c(F)c1 [Compound 146, 4-(2-fluoro-4-(2-methyl-5-(1-methyl-1H-pyrazol-4-yl)-3H-imidazo[4,5-b]pyridin-3-yl)phenyl)morpholine]
32 | 0.5 to 100 nM | Cc1nc2ccc(-c3ccnc(N)c3)nc2n1-c1ccc(N2CCOC[C@@H]2C)c(F)c1 [Compound 171, (S)-4-(3-(3-fluoro-4-(3-methylmorpholino)phenyl)-2-methyl-3H-imidazo[4,5-b]pyridin-5-yl)pyridin-2-amine]
33 | 0.5 to 100 nM | Nc1cc(-c2ccc3ncc(-c4ccc(CN5CCOCC5)cc4)n3n2)ccn1 [Compound 108, 4-(3-(4-(morpholinomethyl)phenyl)imidazo[1,2-b]pyridazin-6-yl)pyridin-2-amine]
34 | 501 to 10000 nM | Cc1nc2ccc(-c3cc[nH]c(=O)c3)nc2n1-c1ccc(N2CCOCC2)cc1 [Compound 54, 4-(2-methyl-3-(4-morpholinophenyl)-3H-imidazo[4,5-b]pyridin-5-yl)pyridin-2(1H)-one]
35 | 101 to 500 nM | Cc1nc2ccc(-c3ccncc3)nc2n1-c1ccc(=O)n(C)c1 [Compound 41, 1-methyl-5-(2-methyl-5-(pyridin-4-yl)-3H-imidazo[4,5-b]pyridin-3-yl)pyridin-2(1H)-one]
36 | 0.5 to 100 nM | Cc1nc2ccc(-c3ccncc3)nc2n1-c1ccc(CN2C[C@H](C)O[C@@H](C)C2)cc1 [Compound 118, (2S,6S)-2,6-dimethyl-4-(4-(2-methyl-5-(pyridin-4-yl)-3H-imidazo[4,5-b]pyridin-3-yl)benzyl)morpholine]
37 | 101 to 500 nM | NC(=O)c1ccnc(-n2cnc3ccc(-c4ccncc4)c(F)c32)c1 [Compound 12, 2-(7-fluoro-6-(pyridin-4-yl)-1H-benzo[d]imidazol-1-yl)isonicotinamide]
38 | 101 to 500 nM | FC1(F)CCN(Cc2ccc(-c3cnc4ccc(-c5ccncc5)nn34)cc2)C1 [Compound 98, 3-(4-((3,3-difluoropyrrolidin-1-yl)methyl)phenyl)-6-(pyridin-4-yl)imidazo[1,2-b]pyridazine]
39 | 0.5 to 100 nM | c1cc(-c2ccc3ncc(-c4ccc(CN5CCCCC5)cc4)n3n2)ccn1 [Compound 97, 3-(4-(piperidin-1-ylmethyl)phenyl)-6-(pyridin-4-yl)imidazo[1,2-b]pyridazine]
40 | 0.5 to 100 nM | Cc1cc(-c2ccc3nc(C)n(-c4ccc(N5CCOCC5)c(F)c4)c3n2)ccn1 [Compound 145, 4-(2-fluoro-4-(2-methyl-5-(2-methylpyridin-4-yl)-3H-imidazo[4,5-b]pyridin-3-yl)phenyl)morpholine]
41 | 501 to 10000 nM | Fc1cnccc1-c1ccc2ncc(-c3ccc(CN4CCCCC4)cc3)n2n1 [Compound 109, 6-(3-fluoropyridin-4-yl)-3-(4-(piperidin-1-ylmethyl)phenyl)imidazo[1,2-b]pyridazine]
42 | 101 to 500 nM | N#Cc1ccnc(-n2cnc3ccc(-c4ccncc4)c(F)c32)c1 [Compound 11, 2-(7-fluoro-6-(pyridin-4-yl)-1H-benzo[d]imidazol-1-yl)isonicotinonitrile]
